Laboratory results reported in BindingDB's records for doi:10.1016/j.bmcl.2014.06.082 (Friedrich Alexander University, 2014).

Target: T1, G protein-coupled receptor (Human cytomegalovirus, UniProt Q9IP65)
T1 sequence (Q9IP65 whole entry): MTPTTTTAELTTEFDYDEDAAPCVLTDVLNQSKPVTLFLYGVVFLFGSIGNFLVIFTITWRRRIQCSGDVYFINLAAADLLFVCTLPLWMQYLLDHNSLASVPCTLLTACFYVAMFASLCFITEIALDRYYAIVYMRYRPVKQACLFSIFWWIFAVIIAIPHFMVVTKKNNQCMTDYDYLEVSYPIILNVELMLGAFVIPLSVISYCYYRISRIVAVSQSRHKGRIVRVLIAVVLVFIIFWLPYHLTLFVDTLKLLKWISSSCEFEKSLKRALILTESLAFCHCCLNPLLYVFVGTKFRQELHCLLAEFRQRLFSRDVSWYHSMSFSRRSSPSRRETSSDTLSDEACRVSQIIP
Assay: Allosteric modulatory activity at FLAG-tagged human cytomegalovirus US28 receptor delta300 mutant expressed in HEK293T cells by PathDetectElk1 assay

SMILES	EC50 [µM]
CCCCCCCCCC(=O)N(CCN(C)C)CC1(C)Cc2ccccc2C(=O)N1 (configuration not stated)	< 10
N#CC(CCCN1CCC(O)(c2ccc(Cl)cc2)CC1)(c1ccccc1)c1ccccc1 [5-[4-(4-Chloro-phenyl)-4-hydroxy-piperidin-1-yl]-2,2-diphenyl-pentanenitrile]	< 10
